Columns and labels:
Type in all cases: physicochemical
[1] = Spectrum measurement (UV, excitation and fluorescence spectra) on addition of ZnSO4
Description: To a 15 μM solution of Compound (14) in 100 mM HEPES buffer (pH 7.4), ZnSO4 was added up to 15 μM. Spectra of the solution were measured under the measurement condition described in Example 2. The same spectral measurement was also conducted for Compound (11) as a reference. In FIG. 3, a) UV spectrum change of Compound (14), b) excitation spectra of Compound (14) with fluorescence wavelengths fixed at 495 nm, c) UV spectrum change of Compound (11), and d) excitation spectra of Compound (11) with fluorescence wavelengths fixed at 530 nm are shown. Further, to a 10 μM solution of Compound (15) in 100 mM HEPES buffer (pH 7.4), ZnSO4 was added up to 200 μM. Spectra were measured under the condition described in Example 2.

[2] = Ratio measurement on addition of ions other than zinc ion (selectivity)
Description: (§1) To a 20 μM solution of Compound (11) in 100 mM HEPES buffer (pH 7.4), ZnSO4 was added up to 20 μM. Change of the ratio of fluorescence intensities at excitation wavelengths at 335 nm and 354 nm with the fluorescence wavelengths fixed at 530 nm are shown (FIG. 2 (A)). To a 20 μM solution of Compound (11) in 100 mM HEPES buffer (pH 7.4), sodium ions, calcium ions, potassium ions, or magnesium ions were added up to 400 μM. Changes of the ratio of fluorescence intensities at excitation wavelengths at 335 nm and 354 nm with the fluorescence wavelengths fixed at 530 nm are shown (FIG. 2 (B)).
(§2) Studies of fluorescence characteristics and the ratio measurements of Compound (14) and (15) were conducted in the same manners as those described in Example 2 and Example 3. Fluorescent characteristics of Compound (14) and (15) before and after addition of zinc ions (20 μM ZnSO4) are shown in the following Table 2.

[3] = Fluorescence characteristics (excitation and emission maxima) before and after addition of zinc ions
Description: Fluorescence characteristics of Compound (11) were studied. Compound (11) was dissolved in 100 mM HEPES buffer (pH 7.4, containing 0.4% DMSO as co-solvent) up to 20 μM and measured excitation spectra.
Hitachi F-4500 fluorescence measurement apparatus
Scanning rate: 240 nm/min
Photomultiplier voltage: 950 V
Measurement temperature: 25° C.
as §2

[4] = Ratio measurement of fluorescence intensities at two excitation wavelengths on addition of zinc ions; conditions: excitation 335 nm and 354 nm, fluorescence 530 nm; 20 μM compound, ZnSO4 up to 20 μM, HEPES pH 7.4
Description: as §1, §2

[5] = 20 μM compound, 20 μM ZnSO4, 100 mM HEPES buffer pH 7.4, 25° C.
[6] = 20 μM compound, 100 mM HEPES buffer pH 7.4, 0.4% DMSO, 25° C.

Change of absorbance at 335 nm on addition of zinc ions ([1]; 15 μM compound, ZnSO4 up to 15 μM, HEPES pH 7.4): increases
Change of absorbance at the long-wavelength maximum on addition of zinc ions ([1]; 365 nm for Compound (14), 354 nm for Compound (11), 15 μM compound, ZnSO4 up to 15 μM): decreases
Change of fluorescence excited at the long-wavelength maximum on addition of zinc ions ([1]; excited at 365 nm (Compound (14), emission 495 nm) or 354 nm (Compound (11), emission 530 nm)): decreases
Em(nm), after addition of Zn2+ [3, 5]: 528 nm
Ex(nm), after addition of Zn2+ [3, 5]: 335 nm
Em(nm), before addition of Zn2+ [3, 6]: 532 nm
Ex(nm), before addition of Zn2+ [3, 6]: 354 nm
Wavelength shift of the peak of the excitation spectrum on coordination to a zinc ion ([3]; blue shift, depending on concentration of zinc ions): about 20 nm
SMILES: COc1cc2cc(-c3ccc(C(=O)O)cc3)oc2cc1NCCN(Cc1ccccn1)Cc1ccccn1 [Compound (11)]
Change of the ratio of fluorescence intensities on addition of sodium, calcium, potassium or magnesium ions ([2]; ions added up to 400 μM, 20 μM compound, 100 mM HEPES pH 7.4): no change of the ratio was observed
Selectivity to zinc ions ([2]; versus sodium, calcium, potassium, magnesium ions): high selectivity to zinc ions
Change of the ratio of fluorescence intensities on addition of zinc ions [4]: changed concentration dependent manner of zinc ions

Reference: patent US20080261314A1, “FLUORESCENT PROBE FOR ZINC” (DAIICHI PURE CHEMICALS CO., LTD., priority 2001, published 2008)
